Measured values: patent US20250154169A1, “COMPOUNDS AND METHODS FOR MODULATING SPLICING” (REMIX THERAPEUTICS INC., priority 2021, published 2025)
Where a name gives a salt, the structure may show the parent alone. Read-outs that look alike come from different tables or passages of the source.

Experiments:
Type in all cases: cell-based, human
[1] = tested on: HTT mRNA; test: Splicing RT-qPCR assay, HTT canonical (CJ) and alternative (AJ) junction mRNA; details: Homo sapiens, A673 or K562 cells, 24 hours compound treatment; for IC50: 24 h, read-out: HTT CJ (IC50, decrease in canonical junction mRNA); for AC50: read-out: HTT AJ (AC50, increase in alternative junction mRNA)
Outline: (§1)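 One-step RT-qPCR on cell lysates, CJ and AJ isoforms quantified; housekeeping normalization GAPDH/GUSB (K562) or PPIA (A673). Cells: A673 in DMEM/10% FBS or K562 in IMDM/10% FBS. Compounds 11-pt 3-fold, top 10 uM, 24 h, 37 °C, 5% CO2.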

[2] = tested on: MYB mRNA; test: Splicing RT-qPCR assay, MYB canonical (CJ) and alternative (AJ) junction mRNA; details: Homo sapiens; for AC50: read-out: MYB AJ (AC50, increase in alternative junction mRNA)
Outline: as §1

[3] = tested on: SMN2 mRNA; test: Splicing RT-qPCR gene panel, SMN2 canonical junction (CJ) mRNA; details: Homo sapiens, Tables 4A/4B, read-out: SMN2 (IC50, decrease in CJ mRNA, gene panel)
Outline: (§2)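 A673 or K562 cells treated 24 h at 37° C. with an 11-point 3-fold dilution series (top 10 uM, ≤0.25% DMSO). Lysates analysed by one-step RT-qPCR for canonical exon-exon junction transcripts, normalized to GAPDH, GUSB or PPIA and DMSO control (2^(−ΔΔCt)), then converted to percentage response.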

[4] = tested on: Target C mRNA; test: Splicing RT-qPCR gene panel, Target C canonical junction (CJ) mRNA; details: Homo sapiens, Tables 4A/4B, read-out: Target C (IC50, decrease in CJ mRNA, gene panel)
Outline: as §2

[5] = tested on: HTT mRNA; test: Splicing RT-qPCR gene panel, HTT canonical junction (CJ) mRNA; details: Homo sapiens, Tables 4A/4B, read-out: HTT (IC50, decrease in CJ mRNA, gene panel)
Outline: as §2

[6] = 24 h, A673 or K562 cells, 24 hours compound treatment, RT-qPCR
[7] = 24 h, A673 or K562 cells, 24 hours compound treatment, RT-qPCR, read-out: MYB CJ (IC50, decrease in canonical junction mRNA)
[8] = Tables 4A/4B, canonical junction qPCR panel, read-out: MYB (IC50, decrease in CJ mRNA, gene panel)

Compound | IC50 [1] | IC50 [2, 7] | IC50 [2, 8] | IC50 [3] | IC50 [4] | IC50 [5] | AC50 [1] | AC50 [2, 6]
Cc1cn2cc(NC(=O)c3ccc(N4CCNCC4)c4cn(CC(=O)N(C)C)nc34)cc(F)c2n1 [Compound 309, 2-[(dimethylcarbamoyl)methyl]-N-{8-fluoro-2-methylimidazo[1,2-a]pyridin-6-yl}-4-(piperazin-1-yl)indazole-7-carboxamide] | > 10000 nM | 1000 to 10000 nM | 1000 to 10000 nM | 1000 to 10000 nM | > 10000 nM | > 10000 nM | > 10000 nM | > 10000 nM
COc1cc(C(=O)Nc2cc(F)c3nc(C)cn3c2)c2nn(C)cc2c1N1CCNCC1 [Compound 311, N-{8-fluoro-2-methylimidazo[1,2-a]pyridin-6-yl}-5-methoxy-2-methyl-4-(piperazin-1-yl)indazole-7-carboxamide] | > 10000 nM | 100 to 1000 nM | 100 to 1000 nM | < 100 nM | > 10000 nM | > 10000 nM | > 10000 nM | 1000 to 10000 nM
Cc1cn2cc(NC(=O)c3ccc(N4CCNCC4)c4cn(Cc5ccncc5)nc34)cc(F)c2n1 [Compound 313, N-{8-fluoro-2-methylimidazo[1,2-a]pyridin-6-yl}-4-(piperazin-1-yl)-2-(pyridin-4-ylmethyl)indazole-7-carboxamide] | > 10000 nM | 1000 to 10000 nM | 1000 to 10000 nM | 100 to 1000 nM | 1000 to 10000 nM | > 10000 nM | > 10000 nM | 1000 to 10000 nM
Cc1cn2cc(NC(=O)c3ccc(N4CCNCC4)c4cn(CC(F)(F)F)nc34)cc(F)c2n1 [Compound 316, N-{8-fluoro-2-methylimidazo[1,2-a]pyridin-6-yl}-4-(piperazin-1-yl)-2-(2,2,2-trifluoroethyl)indazole-7-carboxamide] | > 10000 nM | 1000 to 10000 nM | 1000 to 10000 nM | 100 to 1000 nM | > 10000 nM | > 10000 nM | > 10000 nM | 100 to 1000 nM
Cc1cn2cc(NC(=O)c3ccc(N4CCNCC4)c4cn(Cc5cncnc5)nc34)cc(F)c2n1 [Compound 318, N-{8-fluoro-2-methylimidazo[1,2-a]pyridin-6-yl}-4-(piperazin-1-yl)-2-(pyrimidin-5-ylmethyl)indazole-7-carboxamide] | > 10000 nM | 100 to 1000 nM | 100 to 1000 nM | < 100 nM | > 10000 nM | > 10000 nM | > 10000 nM | 100 to 1000 nM
Cc1cc(NC(=O)c2ccc(N3CCNCC3)c3cn(C)nc23)cc2c1nc(C)n2C [Compound 321, 2-methyl-4-(piperazin-1-yl)-N-(2,3,7-trimethyl-1,3-benzodiazol-5-yl) indazole-7-carboxamide trifluoroacetate] | > 10000 nM | > 10000 nM | > 10000 nM | > 10000 nM | > 10000 nM | > 10000 nM | > 10000 nM | > 10000 nM

Further lines, with some results ahead:

IC50 [1] | IC50 [2, 7] | IC50 [2, 8] | IC50 [3] | IC50 [4] | IC50 [5] | Compound | AC50 [1] | AC50 [2, 6]
1000 to 10000 nM | 100 to 1000 nM | 100 to 1000 nM | < 100 nM | > 10000 nM | 1000 to 10000 nM | COCCn1cc2c(N3C[C@@H](C)N[C@@H](C)C3)ccc(C(=O)Nc3cc(F)c4nc(C)cn4c3)c2n1 [Compound 306, 4-[(3R,5S)-3,5-dimethylpiperazin-1-yl]-N-{8-fluoro-2-methylimidazo[1,2-a]pyridin-6-yl}-2-(2-methoxyethyl) indazole-7-carboxamide] | 1000 to 10000 nM | < 100 nM
1000 to 10000 nM | 100 to 1000 nM | 100 to 1000 nM | < 100 nM | > 10000 nM | 1000 to 10000 nM | CCNC1CCN(c2ccc(C(=O)Nc3cc(F)c4nc(C)cn4c3)c3nn(CCOC)cc23)CC1 [Compound 307, 4-[4-(ethylamino)piperidin-1-yl]-N-{8-fluoro-2-methylimidazo[1,2-a]pyridin-6-yl}-2-(2-methoxyethyl) indazole-7-carboxamide] | 1000 to 10000 nM | 100 to 1000 nM
> 10000 nM | > 10000 nM | > 10000 nM | > 10000 nM | > 10000 nM | > 10000 nM | Cc1cn2cc(NC(=O)c3ccc(N4CCNCC4)c4cn(CC5(C)COC5)nc34)cc(F)c2n1 [Compound 308, N-{8-fluoro-2-methylimidazo[1,2-a]pyridin-6-yl}-2-[(3-methyloxetan-3-yl)methyl]-4-(piperazin-1-yl)indazole-7-carboxamide] | > 10000 nM | > 10000 nM
1000 to 10000 nM | < 100 nM | < 100 nM | < 100 nM | > 10000 nM | 1000 to 10000 nM | CCNC1CCN(c2ccc(C(=O)Nc3cc(F)c4nc(C)cn4c3)c3nn(CCOC)cc23)C1 (stereo not drawn) [Compound 310, 4-(3-(ethylamino)pyrrolidin-1-yl)-N-(8-fluoro-2-methylimidazo[1,2-a]pyridin-6-yl)-2-(2-methoxyethyl)-2H-indazole-7-carboxamide] | 1000 to 10000 nM | < 100 nM
1000 to 10000 nM | 100 to 1000 nM | 100 to 1000 nM | < 100 nM | 1000 to 10000 nM | 1000 to 10000 nM | CCCCn1cc2c(N3CCNCC3)ccc(C(=O)Nc3cc(F)c4nc(C)cn4c3)c2n1 [Compound 312, 2-butyl-N-{8-fluoro-2-methylimidazo[1,2-a]pyridin-6-yl}-4-(piperazin-1-yl)indazole-7-carboxamide] | 1000 to 10000 nM | < 100 nM
1000 to 10000 nM | < 100 nM | < 100 nM | < 100 nM | > 10000 nM | 1000 to 10000 nM | Cc1cn2cc(NC(=O)c3ccc(N4CCNCC4)c4cn(C)nc34)cc(C#N)c2n1 [Compound 314, N-{8-cyano-2-methylimidazo[1,2-a]pyridin-6-yl}-2-methyl-4-(piperazin-1-yl) indazole-7-carboxamide hydrochloride] | 1000 to 10000 nM | < 100 nM
100 to 1000 nM | < 100 nM | < 100 nM | < 100 nM | 100 to 1000 nM | 100 to 1000 nM | COc1c(NC(=O)c2ccc(N3CCNCC3)c3cn(C)nc23)cc2cn(C)nc2c1F [Compound 315, N-(7-fluoro-6-methoxy-2-methylindazol-5-yl)-2-methyl-4-(piperazin-1-yl) indazole-7-carboxamide hydrochloride] | 100 to 1000 nM | < 100 nM
1000 to 10000 nM | < 100 nM | < 100 nM | < 100 nM | 1000 to 10000 nM | 1000 to 10000 nM | Cn1cc2cc(NC(=O)c3ccc(N4CCNCC4)c4cn(C)nc34)cc(F)c2n1 [Compound 319, N-(7-fluoro-2-methylindazol-5-yl)-2-methyl-4-(piperazin-1-yl) indazole-7-carboxamide hydrochloride] | 1000 to 10000 nM | < 100 nM
1000 to 10000 nM | 100 to 1000 nM | 100 to 1000 nM | < 100 nM | > 10000 nM | 1000 to 10000 nM | Cc1cc(NC(=O)c2ccc(N3CCNCC3)c3cn(C)nc23)cc2cn(C)nc12 [Compound 320, N-(2,7-dimethylindazol-5-yl)-2-methyl-4-(piperazin-1-yl) indazole-7-carboxamide; trifluoroacetic acid] | 1000 to 10000 nM | 100 to 1000 nM
